{"source": "patent US11319299B2", "about": "“Substituted carboxamides as inhibitors of WDR5 protein-protein binding” (PROPELLON THERAPEUTICS INC., priority 2016, dated 2022)", "data": [{"target": "WDR5 (Homo sapiens (Human), UniProt P61964)", "experiment": "Surface Plasmon Resonance (SPR) assay, KD and residence time", "format": "binding", "conditions": "surface plasmon resonance (SPR); read-out: WDR5 binding affinity (KD)", "units": {"Kd": "nM"}, "values": [{"smiles": "CC1CN(c2cc(F)c(-c3cnc(N4CCN(C(C)(C)C)CC4)nc3)cc2NC(=O)c2ccc(F)cc2C(F)(F)F)CCN1C", "note": "(stereo in doubt) [Example 557, N-[5-[2-(4-tert-butylpiperazin-1-yl)pyrimidin-5-yl]-4-fluoro-2-[(3R)-3,4-dimethylpiperazin-1-yl]phenyl]-4-fluoro-2-(trifluoromethyl)benzamide]", "Kd": 1.09}, {"smiles": "CC1CN(c2cc(F)c(-c3cnc(N4CCOC(C)(C)C4)nc3)cc2NC(=O)c2ccc(F)cc2C(F)(F)F)CCN1C", "note": "(stereo in doubt) [Example 558, N-[5-[2-(2,2-dimethylmorpholin-4-yl)pyrimidin-5-yl]-4-fluoro-2-[(3R)-3,4-dimethylpiperazin-1-yl]phenyl]-4-fluoro-2-(trifluoromethyl)benzamide]", "Kd": 3.78}, {"smiles": "CC1CN(c2cc(F)c(-c3ccc(C(N)=O)c(F)c3)cc2NC(=O)c2c[nH]c(=O)cc2C(F)F)CCN1C", "note": "(stereo in doubt) [Example 595, N-[5-(4-carbamoyl-3-fluorophenyl)-4-fluoro-2-[(3R)-3,4-dimethylpiperazin-1-yl]phenyl]-4-(difluoromethyl)-6-oxo-1H-pyridine-3-carboxamide]", "Kd": 1.18}, {"smiles": "CC1CN(c2cc(F)c(-c3ccc(F)c(C(N)=O)c3)cc2NC(=O)c2c[nH]c(=O)cc2C(F)F)CCN1C", "note": "(stereo in doubt) [Example 596, N-[5-(3-carbamoyl-4-fluorophenyl)-4-fluoro-2-[(3R)-3,4-dimethylpiperazin-1-yl]phenyl]-4-(difluoromethyl)-6-oxo-1H-pyridine-3-carboxamide]", "Kd": 4.03}, {"smiles": "CNC(=O)c1ccc(-c2cc(NC(=O)c3c[nH]c(=O)cc3C(F)F)c(N3CCN(C)C(C)C3)cc2F)cc1F", "note": "(stereo in doubt) [Example 597, 4-(difluoromethyl)-N-[4-fluoro-5-[3-fluoro-4-(methylcarbamoyl)phenyl]-2-[(3R)-3,4-dimethylpiperazin-1-yl]phenyl]-6-oxo-1H-pyridine-3-carboxamide]", "Kd": 0.711}, {"smiles": "CNC(=O)c1cc(-c2cc(NC(=O)c3c[nH]c(=O)cc3C(F)F)c(N3CCN(C)C(C)C3)cc2F)ccc1F", "note": "(stereo in doubt) [Example 598, 4-(difluoromethyl)-N-[4-fluoro-5-[4-fluoro-3-(methylcarbamoyl)phenyl]-2-[(3R)-3,4-dimethylpiperazin-1-yl]phenyl]-6-oxo-1H-pyridine-3-carboxamide]", "Kd": 1.51}, {"smiles": "CC1CN(c2cc(F)c(-c3nccc(N4CCOCC4)n3)cc2NC(=O)c2c[nH]c(=O)cc2C(F)(F)F)CCN1C", "note": "(stereo in doubt) [Example 599, N-[4-fluoro-5-(4-morpholin-4-ylpyrimidin-2-yl)-2-[(3R)-3,4-dimethylpiperazin-1-yl]phenyl]-6-oxo-4-(trifluoromethyl)-1H-pyridine-3-carboxamide]", "Kd": 4.18}, {"smiles": "C[C@@H]1CN(c2cc(F)c(-c3cnc(N4CCOC[C@H]4C)nc3)cc2NC(=O)c2cn(C)c(=O)cc2C(F)F)CCN1C", "note": "(stereo in doubt) [Example 607, 4-(difluoromethyl)-N-[4-fluoro-2-[(3R)-3,4-dimethylpiperazin-1-yl]-5-[2-[(3R)-3-methylmorpholin-4-yl]pyrimidin-5-yl]phenyl]-1-methyl-6-oxopyridine-3-carboxamide]", "Kd": 1.53}, {"smiles": "Cc1cc(C(=O)Nc2cc(-c3cnc(N4CCOC(C)C4)nc3)c(F)cc2N2C[C@@H](C)N(C)[C@@H](C)C2)cc(C)c1F", "note": "(stereo in doubt) [Example 611, 4-fluoro-N-[4-fluoro-5-[2-[(2R)-2-methylmorpholin-4-yl]pyrimidin-5-yl]-2-[(3S,5R)-3,4,5-trimethylpiperazin-1-yl]phenyl]-3,5-dimethylbenzamide]", "Kd": 1.55}, {"smiles": "CC1CN(c2cc(F)c(-c3cnc(N4CCC(C)(O)CC4)nc3)cc2NC(=O)c2ccc(F)cc2C(F)(F)F)CCN1C", "note": "(stereo in doubt) [Example 613, 4-fluoro-N-[4-fluoro-5-[2-(4-hydroxy-4-methylpiperidin-1-yl)pyrimidin-5-yl]-2-[(3R)-3,4-dimethylpiperazin-1-yl]phenyl]-2-(trifluoromethyl)benzamide]", "Kd": 0.922}, {"smiles": "CC1CN(c2cc(F)c(-c3ccnc(N4CCOCC4)n3)cc2NC(=O)c2ccc(F)cc2C(F)(F)F)CCN1C", "note": "(stereo in doubt) [Example 614, 4-fluoro-N-[4-fluoro-5-(2-morpholin-4-ylpyrimidin-4-yl)-2-[(3R)-3,4-dimethylpiperazin-1-yl]phenyl]-2-(trifluoromethyl)benzamide]", "Kd": 0.733}, {"smiles": "CC1CN(c2cc(F)c(-c3cnc(N4CCOCC4)s3)cc2NC(=O)c2c[nH]c(=O)cc2C(F)(F)F)CCN1C", "note": "(stereo in doubt) [Example 618, N-[4-fluoro-5-(2-morpholin-4-yl-1,3-thiazol-5-yl)-2-[(3R)-3,4-dimethylpiperazin-1-yl]phenyl]-6-oxo-4-(trifluoromethyl)-1H-pyridine-3-carboxamide]", "Kd": 1.13}, {"smiles": "CC1CN(c2cc(F)c(-c3csc(N4CCOCC4)n3)cc2NC(=O)c2cn(C)c(=O)cc2C(F)F)CCN1C", "note": "(stereo in doubt) [Example 620, 4-(difluoromethyl)-N-[4-fluoro-5-(2-morpholin-4-yl-1,3-thiazol-4-yl)-2-[(3R)-3,4-dimethylpiperazin-1-yl]phenyl]-1-methyl-6-oxopyridine-3-carboxamide]", "Kd": 4.19}, {"smiles": "CC1CN(c2cc(F)c(-c3cnc(N4CCOCC4)s3)cc2NC(=O)c2cn(C)c(=O)cc2C(F)F)CCN1C", "note": "(stereo in doubt) [Example 621, 4-(difluoromethyl)-N-[4-fluoro-5-(2-morpholin-4-yl-1,3-thiazol-5-yl)-2-[(3R)-3,4-dimethylpiperazin-1-yl]phenyl]-1-methyl-6-oxopyridine-3-carboxamide]", "Kd": 4.84}, {"smiles": "CC1CN(c2cc(F)c(-c3cc(C(=O)NC(C)(C)CC(C)(C)C)c(F)cc3F)cc2NC(=O)c2ccc(F)cc2C(F)(F)F)CCN1C", "note": "(stereo in doubt) [Example 625, 2,4-difluoro-5-[2-fluoro-5-[[4-fluoro-2-(trifluoromethyl)benzoyl]amino]-4-[(3R)-3,4-dimethylpiperazin-1-yl]phenyl]-N-(2,4,4-trimethylpentan-2-yl)benzamide]", "Kd": 172}, {"smiles": "C[C@@H]1CN(c2cc(F)c(-c3cnc(N4CCOC[C@H]4C)nc3)cc2NC(=O)c2c[nH]c(=O)cc2C(F)F)CCN1C", "note": "(stereo in doubt) [Example 628, 4-(difluoromethyl)-N-[4-fluoro-2-[(3R)-3,4-dimethylpiperazin-1-yl]-5-[2-[(3R)-3-methylmorpholin-4-yl]pyrimidin-5-yl]phenyl]-6-oxo-1H-pyridine-3-carboxamide]", "Kd": 1.25}, {"smiles": "CC1CN(c2cc(F)c(-c3cc(C(N)=O)c(F)cc3F)cc2NC(=O)c2ccc(F)cc2C(F)(F)F)CCN1C", "note": "(stereo in doubt) [Example 635, 2,4-difluoro-5-[2-fluoro-5-[[4-fluoro-2-(trifluoromethyl)benzoyl]amino]-4-[(3R)-3,4-dimethylpiperazin-1-yl]phenyl]benzamide]", "Kd": 66.9}, {"smiles": "CC1CN(c2cc(F)c(C3=CCCN(c4ncccn4)C3)cc2NC(=O)c2ccc(F)cc2C(F)(F)F)CCN1C", "note": "(stereo in doubt) [Example 649, 4-fluoro-N-[4-fluoro-5-(1-pyrimidin-2-yl-3,6-dihydro-2H-pyridin-5-yl)-2-[(3R)-3,4-dimethylpiperazin-1-yl]phenyl]-2-(trifluoromethyl)benzamide]", "Kd": 1.87}, {"smiles": "CC1CN(c2cc(F)c(C3=CCCN(c4ncc(C=O)cn4)C3)cc2NC(=O)c2ccc(F)cc2C(F)(F)F)CCN1C", "note": "(stereo in doubt) [Example 650, 4-fluoro-N-[4-fluoro-5-[1-(5-formylpyrimidin-2-yl)-3,6-dihydro-2H-pyridin-5-yl]-2-[(3R)-3,4-dimethylpiperazin-1-yl]phenyl]-2-(trifluoromethyl)benzamide]", "Kd": 5.18}, {"smiles": "CC1CN(c2cc(F)c(-c3ccc(C(N)=O)c(F)c3)cc2NC(=O)c2cn(C)c(=O)cc2C(F)F)CCN1C", "note": "(stereo in doubt) [Example 652, N-[5-(4-carbamoyl-3-fluorophenyl)-4-fluoro-2-[(3R)-3,4-dimethylpiperazin-1-yl]phenyl]-4-(difluoromethyl)-1-methyl-6-oxopyridine-3-carboxamide]", "Kd": 5.29}, {"smiles": "CNC(=O)c1ccc(-c2cc(NC(=O)c3cn(C)c(=O)cc3C(F)F)c(N3CCN(C)C(C)C3)cc2F)cc1F", "note": "(stereo in doubt) [Example 653, 4-(difluoromethyl)-N-[4-fluoro-5-[3-fluoro-4-(methylcarbamoyl)phenyl]-2-[(3R)-3,4-dimethylpiperazin-1-yl]phenyl]-1-methyl-6-oxopyridine-3-carboxamide]", "Kd": 3.43}, {"smiles": "CC1CN(c2cc(F)c(-c3ccnc(N4CCOCC4)n3)cc2NC(=O)c2ccc(F)cc2C(F)F)CCN1C", "note": "(stereo in doubt) [Example 655, 2-(difluoromethyl)-4-fluoro-N-[4-fluoro-5-(2-morpholin-4-ylpyrimidin-4-yl)-2-[(3R)-3,4-dimethylpiperazin-1-yl]phenyl]benzamide]", "Kd": 1.06}, {"smiles": "CC1CN(c2cc(F)c(-c3cc(F)c(C(N)=O)c(F)c3)cc2NC(=O)c2ccc(F)cc2C(F)(F)F)CCN1C", "note": "(stereo in doubt) [Example 657, 2,6-difluoro-4-[2-fluoro-5-[[4-fluoro-2-(trifluoromethyl)benzoyl]amino]-4-[(3R)-3,4-dimethylpiperazin-1-yl]phenyl]benzamide]", "Kd": 4.69}, {"smiles": "C[C@@H]1CN(c2nccc(-c3cc(NC(=O)c4ccc(F)cc4C(F)(F)F)c(N4CCN(C)[C@H](C)C4)cc3F)n2)CCO1", "note": "(stereo in doubt) [Example 660, 4-fluoro-N-[4-fluoro-2-[(3R)-3,4-dimethylpiperazin-1-yl]-5-[2-[(2R)-2-methylmorpholin-4-yl]pyrimidin-4-yl]phenyl]-2-(trifluoromethyl)benzamide]", "Kd": 0.29}, {"smiles": "CC1CN(c2cc(F)c(-c3ccnc(N4CCOCC4)n3)cc2NC(=O)c2cn(C)c(=O)cc2C(F)F)CCN1C", "note": "(stereo in doubt) [Example 664, 4-(difluoromethyl)-N-[4-fluoro-5-(2-morpholin-4-ylpyrimidin-4-yl)-2-[(3R)-3,4-dimethylpiperazin-1-yl]phenyl]-1-methyl-6-oxopyridine-3-carboxamide]", "Kd": 2.68}]}]}
